Data reported in patent US8815241B2, “Use of combination of anti-angiogenic substance and c-kit kinase inhibitor” (Eisai R&D Management Co., Ltd., priority 2005, dated 2014).

Tested on: Human gastrointestinal stromal tumor cell line GIST882
Test: Human cancer cell line subcutaneous xenograft model (GIST882 in nude mouse), combined use
Assay type: in vivo
Settings: once a day, for two weeks, orally
Description: Human gastrointestinal stromal tumor cell line GIST882 (supplied by The Brigham and Women's Hospital, Inc.) was cultured in RPMI1640 (containing 10% FBS) in a 5% carbon dioxide incubator to about 80% confluence. Following cultivation, each cell was collected by trypsin-EDTA treatment according to a general method. Using a phosphate buffer containing 50% matrigel, 5×10^7 cells/mL suspension was prepared, and 0.2 mL each of the resulting cell suspension was subcutaneously transplanted into the flank of a nude mouse. Starting from twenty-one days after the transplantation, 4-(3-chloro-4-(cyclopropylaminocarbonyl)aminophenoxy)-7-methoxy-6-quinolinecarboxamide (10 mg/kg or 30 mg/kg, once a day, for two weeks) and imatinib (160 mg/kg, twice a day, for two weeks) were orally administered alone or in combination. […] Tumor Volume (TV)=Major axis of tumor (mm)×(Minor axis of tumor)^2 (mm^2)/2 Relative Tumor Volume (RTV)=Tumor volume on measurement day/Tumor volume on the first administration day

## COc1cc2nccc(Oc3ccc(NC(=O)NC4CC4)c(Cl)c3)c2cc1C(N)=O [Compound A, 4-(3-chloro-4-(cyclopropylaminocarbonyl)aminophenoxy)-7-methoxy-6-quinolinecarboxamide]
Compound A 10 mg/kg alone
  Relative tumor volume on Day 15, Average ± standard deviation: 2.06 ± 0.16
Compound A 30 mg/kg alone
  Relative tumor volume on Day 15, Average ± standard deviation: 1.36 ± 0.13
